US8106055B2, “Substituted amide compounds” (Gruenenthal GmbH, priority 2007, dated 2012)

Experiments:
[1] = target: T1, bradykinin 1 receptor (B1R) of the rat (Rattus norvegicus, UniProt P97583); assay: Functional investigation on the rat bradykinin 1 receptor (B1R), Ca2+ FLIPR assay in CHO K1 rB1R cells; format: cell-based; conditions: B1R antagonism rat; test substance 10 μM; Ca2+ FLIPR, CHO K1 rB1R cells
T1 construct: expressed in transfected cells; host or cells: CHO K1 cells
T1 sequence (P97583 1-337): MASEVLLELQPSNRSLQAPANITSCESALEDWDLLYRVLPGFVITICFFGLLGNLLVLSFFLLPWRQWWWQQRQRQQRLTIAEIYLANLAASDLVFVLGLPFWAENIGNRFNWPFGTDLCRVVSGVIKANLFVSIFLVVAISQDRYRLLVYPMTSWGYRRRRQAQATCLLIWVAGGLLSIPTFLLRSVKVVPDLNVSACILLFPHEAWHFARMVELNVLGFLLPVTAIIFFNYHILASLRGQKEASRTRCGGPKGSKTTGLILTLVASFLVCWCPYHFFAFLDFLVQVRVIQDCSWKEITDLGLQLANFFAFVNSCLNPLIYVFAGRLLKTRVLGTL
Method in brief: (§1)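 Stably transfected CHO K1 cells loaded with Fluo-4; FLIPR Ca2+ fluorescence peak (ex 488/em 540 nm). Compound added first (agonism vs Lys-Des-Arg9-bradykinin ≥50 nM human, Des-Arg9-bradykinin 10 μM rat), then after 10-20 min agonist at EC80; antagonism as % inhibition, IC50 from concentration series, n=2-3, N≥2.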

[2] = target: T2, human bradykinin 1 receptor (B1R) (Homo sapiens, UniProt P46663); assay: Functional investigation on the human bradykinin 1 receptor (B1R), Ca2+ FLIPR assay in CHO K1 hB1R cells; format: cell-based; conditions: B1R antagonism human; test substance 10 μM; Ca2+ FLIPR, CHO K1 hB1R cells
T2 construct: expressed in transfected cells; host or cells: CHO K1 cells
T2 sequence (P46663 1-353): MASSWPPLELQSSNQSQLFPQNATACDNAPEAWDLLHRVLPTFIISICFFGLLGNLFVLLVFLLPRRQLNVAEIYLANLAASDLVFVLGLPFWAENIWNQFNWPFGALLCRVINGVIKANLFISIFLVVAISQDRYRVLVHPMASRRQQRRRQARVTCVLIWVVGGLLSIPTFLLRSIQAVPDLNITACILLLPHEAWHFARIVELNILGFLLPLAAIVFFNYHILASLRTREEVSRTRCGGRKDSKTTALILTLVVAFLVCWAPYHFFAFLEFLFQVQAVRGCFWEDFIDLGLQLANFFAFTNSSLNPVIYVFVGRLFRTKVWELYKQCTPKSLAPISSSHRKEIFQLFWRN
Method in brief: as §1

Compound | B1R Ant. r [10 μM] % Inhibition [1] [%] | B1R Ant. h [10 μM] % Inhibition [2] [%]
COc1cc(C)c(S(=O)(=O)N2CCC(OCC(=O)NCCC3CCC(C(c4ccc(F)cc4)N(C)C)CC3)C2)c(C)c1 (stereo not drawn) [Example 509] | 94 | 104
COc1ccc(S(=O)(=O)N2CCC(OCC(=O)NC3CCC(C(c4ccc(F)cc4)N(C)C)CC3)C2)cc1OC (stereo not drawn) [Example 512] | 38 | −4
Cc1ccc(S(=O)(=O)N(C)CCOCC(=O)NCCC2CCC(C(c3ccc(F)cc3)N(C)C)CC2)cc1 (stereo not drawn) [Example 457] | 11 | 14
COc1cc(C)c(S(=O)(=O)N2CCCC(OCC(=O)NCCC3CCC(C(c4ccc(F)cc4)N(C)C)CC3)C2)c(C)c1C (stereo not drawn) [Example 468] | 33 | 50
CN(C)C(CCc1ccccc1)C1CCC(CNC(=O)COCCN(C)S(=O)(=O)c2c(Cl)cc(Cl)cc2Cl)CC1 (stereo not drawn) [Example 515] | 54 | 101
CN(C)C(CCc1ccccc1)C1CCC(CNC(=O)COC2CCCCC2N(C)S(=O)(=O)c2ccc(Cl)c(Cl)c2)CC1 (stereo not drawn) [Example 451] | 11 | 87
COc1cc(C)c(S(=O)(=O)N2CCC(OCC(=O)NCCC3CCC(C(c4ccc(F)cc4)N(C)C)CC3)C2)c(C)c1C (stereo not drawn) [Example 467] | 47 | 67
Cc1ccc(S(=O)(=O)N(C)CCOCC(=O)NCC2CCC(C(CCc3ccccc3)N(C)C)CC2)cc1 (stereo not drawn) [Example 452] | 18 | 37
CN(C)C(c1ccc(Cl)cc1)C1CCC(CNC(=O)COC2CCN(S(=O)(=O)c3ccccc3)CC2)CC1 (stereo not drawn) [Example 471] | 15 | 7
COc1cc(C)c(S(=O)(=O)N2CCCC(OCC(=O)NCCC3CCC(C(c4ccc(Cl)cc4)N(C)C)CC3)C2)c(C)c1C (stereo not drawn) [Example 485] | 6 | 5
CN(C)C(CCc1ccccc1)C1CCC(CNC(=O)COCCN(Cc2ccccc2)S(=O)(=O)c2ccccc2)CC1 (stereo not drawn) [Example 533] | 12 | 35
COc1cc(C)c(S(=O)(=O)N2CCC(OCC(=O)NCC3CCC(C(CCc4ccccc4)N(C)C)CC3)C2)c(C)c1C (stereo not drawn) [Example 503] | 37 | 105
COc1ccc(S(=O)(=O)N(C)CCOCC(=O)NCCC2CCC(C(c3ccc(F)cc3)N(C)C)CC2)cc1OC (stereo not drawn) [Example 484] | 19 | −21
CN(C)C(c1ccc(F)cc1)C1CCC(CNC(=O)COC2CCN(S(=O)(=O)c3ccc(F)cc3)C2)CC1 (stereo not drawn) [Example 522] | 12 | 1
CN(C)C(c1ccc(F)cc1)C1CCC(CCNC(=O)COCCN(Cc2ccccc2)S(=O)(=O)c2ccccc2)CC1 (stereo not drawn) [Example 489] | 22 | 34
CN(C)C(c1cccc(F)c1)C1CCC(CNC(=O)COC2CCN(S(=O)(=O)c3ccccc3)CC2)CC1 (stereo not drawn) [Example 477] | 17 | −16
COc1cc(C)c(S(=O)(=O)N(CCOCC(=O)NC2CCC(C(c3ccc(F)cc3)N(C)C)CC2)Cc2ccccc2)c(C)c1 (stereo not drawn) [Example 504] | 48 | 69
COc1cc(C)c(S(=O)(=O)N(CCOCC(=O)NCC2CCC(C(c3ccc(F)cc3)N(C)C)CC2)Cc2ccccc2)c(C)c1 (stereo not drawn) [Example 494] | 36 | 86
COc1cc(C)c(S(=O)(=O)N2CCC(OCC(=O)NCCC3CCC(C(c4ccc(F)cc4)N(C)C)CC3)CC2)c(C)c1C (stereo not drawn) [Example 480] | 4 | 23
COc1ccc(S(=O)(=O)N2CCCCC2COCC(=O)NCCC2CCC(C(c3ccc(F)cc3)N(C)C)CC2)cc1OC (stereo not drawn) [Example 462] | −13 | −8
COc1cc(C)c(S(=O)(=O)N2CCC(OCC(=O)NCCC3CCC(C(c4ccc(Cl)cc4)N(C)C)CC3)CC2)c(C)c1C (stereo not drawn) [Example 472] | 26 | 1
